Data set [1] can be described thus: AD solubility in crystallization solvents. The data set is classed as physicochemical. As to conditions: for solubility: organic solvent or mixture. As to the method:
Crystalline AD is prepared by allowing crystal formation in an AD composition, usually from a solution of AD in a crystallization mixture containing at least about 6%, typically at least about 30%, usually at least about 35%, of AD. One would ordinarily conduct crystallizations by preparing an AD solution comprising about 6-45% AD and about 55-94% crystallization solvent. […] AD is not freely soluble in some crystallization solvents, e.g., AD solubility in di-n-butyl ether is less than about 0.3 mg/mL, and adding these solvents to an AD solution increases the degree of saturation or supersaturation of the solution. One usually uses organic solutions containing an amount of AD that is near the upper solubility limit in the crystallization solvent(s). The lower amount, about 6%, is the minimum amount of AD needed in a solution to consistently yield crystals. Certain solvents, e.g., methanol or CH2Cl2, can contain more than about 50% AD.
One usually prepares Form 3 crystals by allowing crystals to grow in an anhydrous methanol solution of AD. One obtains AD in methanol by mixing sufficient noncrystalline or crystalline AD in methanol for about 10-15 minutes at room temperature or as needed to dissolve the solid AD to obtain a solution having at least about 100-150 mg AD/mL methanol. AD solubility in methanol at room temperature is greater than 600 mg/mL. Crystallization then proceeds for about 4 to about 48 hours at a temperature of about −5° to about 25°, usually at about 0-23°.
Recrystallization generally begins shortly after completion of adding and mixing the di-n-butyl ether and one then allows recrystallization to proceed for about 4-36 hours, usually about 6-24 hours. Additional yield of crystals from recrystallization at room temperature for about 4-36 hours is usually obtained by cooling the recrystallization mixture to about 4-10° and allowing the mixture to stand about 1-6 hours at the reduced temperature. Usually, the amount of AD one uses in a recrystallization will be sufficient to form a saturated or nearly saturated solution, i.e., about 0.4 g/mL using acetone. Dissolution of AD in acetone is complete in about 2-8 minutes using moderate agitation. Material remaining undissolved after this initial mixing period is removed and discarded, followed by adding the second less polar solvent of the solvent pair to the mixture containing the first crystallization solvent.
One conducts a Form 3 recrystallization in methanol in the same manner as described herein for preparation of Form 3 crystals. A saturated or nearly saturated methanol solution is used to prepare the crystals, i.e., at least about 0.6 g/mL AD.

Data set [2] can be described thus: L-carnitine levels in patients taking AD. Type of data set: in vivo. The source says:
Formulations containing crystalline AD and an excipient(s) may also contain L-carnitine or salts of L-carnitine, e.g., L-carnitine-L-tartrate (2:1). […] Tablets containing L-carnitine-L-tartrate and AD may decrease the effect of pivalic acid on L-carnitine depletion in patients taking AD. The amount of L-carnitine to be included will be apparent to the clinician in view of the extent of depletion in patients.

Read-outs that look alike come from different tables or passages of the source.

Take `CC(C)(C)C(=O)OCOP(=O)(COCCn1cnc2c(N)ncnc21)OCOC(=O)C(C)(C)C` [AD, 9-[2-[[bis[(pivaloyloxy)methoxy]phosphinyl]methoxy]ethyl]adenine]: the “saturated or nearly saturated solution of AD” value is on record as “about 0.4 g/mL” in data set [1] (acetone) and “at least 0.6 g/mL” in data set [1] (methanol). Moreover, the solubility is < 0.3 mg/mL in data set [1] (di-n-butyl ether, read-out: AD solubility in di-n-butyl ether) and > 600 mg/mL in data set [1] (methanol, room temperature, read-out: AD solubility in methanol). In addition, in data set [1] (methanol or CH2Cl2, % w/w), the “amount of AD the solvent can contain” value is on record as “more than 50%”. Also, the “upper limit of solubility of AD” value in data set [1] (most crystallization solvents, room temperature, % w/w) is 10-41%. Also, in data set [2], the “effect on L-carnitine levels (release of pivalic acid in vivo)” value is given as “appears to lower the levels of L-carnitine”.

For the origin of these results see US6451340B1, “Nucleotide analog compositions” (Gilead Sciences, Inc., priority 1997, dated 2002).
